We go through two molecules from US12370159B2, “Compositions and methods of use of beta-hydroxy-beta-methylbutyrate (HMB) and probiotics” (priority 2016, dated 2025).

The conditions of data set [1]: after HMB is fed; cited from earlier work.
The conditions of data set [2]: healthy young or old adults; cited from earlier work.
A short description of data set [3]: HMB kinetics before and after two weeks of BC30 probiotic supplementation (Example 2).

Turning to `CC(C)(O)CC(=O)O` [HMB, β-hydroxy-β-methylbutyric acid], the “Loss of HMB to urine” value in data set [1] is 20-50%. In data set [2], the Side effects result was “no side effects”.

For “Calcium β-Hydroxy-β-Methylbutyrate [CaHMB]”, the “Probiotic-induced increase in peak plasma HMB levels, CaHMB compared with HMB-FA” value in data set [3] is on record as “larger”.
